Reference: patent US9765101B2, “Organo-arsenoxide compounds and use thereof” (NewSouth Innovations Pty Limited, priority 2006, dated 2017)
“And” between values parts separate entries of the source, which are not always exact repeats. Equal entries are not always repeated. “Also recorded” adds a separate entry of the source.

Tests used:
[1] = tested on: BxPC-3 cells (pancreatic carcinoma); test: BxPC-3 cell proliferation assay (MTT, 72 h); format: cell-based; conditions: BxPC-3, human pancreatic carcinoma; read-out: IC50 for proliferation arrest
Method: (§1) BAE cells were from Cell Applications, San Diego, Calif. and BxPC-3, HT1080, LLC, PANC-1, MCF-7, HCT116 and K562 cells were from ATCC, Bethesda, Md. NB4 and MDCK2 cells were from Shane Supple (Kanematsu Laboratories, Royal Prince Alfred Hospital, Sydney, Australia) and P. Borst (The Netherlands Cancer Institute, Amsterdam, The Netherlands). BAE, HT1080, Panc-1, MCF-7, HCT116, MDCK2 and LLC cells were cultured in DMEM. NB4, K562 and BxPC-3 cells were cultured in RPMI medium. The cells were supplemented with 10% foetal calf serum (FBS), 2 mM L-glutamine, and 1 U·mL-1 penicillin/streptomycin. Cell culture plasticware was from Techno Plastic Products (Trasadingen, Switzerland). All other cell culture reagents were from Gibco (Gaithersburg, Md.).
(§2) Adherent cells were allowed to adhere overnight.

BAE cells [2] = test: BAE proliferation with glutathione depletion by BSO; format: cell-based, bovine; conditions: BAE cells co-treated with BSO, 72 h
Method: FIG. 12. Depletion of cellular glutathione increases (S)-Penicillamine-arsenoxide anti-proliferative activity. BAE cells were co-treated with (S)-Penicillamine-arsenoxide and the indicated concentrations of BSO for 72 h and the IC50 for proliferation arrest was calculated.
Treatment of BAE cells with glutathione reduced GSAO inhibition of BAE cell proliferation, while blocking de novo synthesis of glutathione with buthionine sulfoximine (BSO), an inhibitor of the γ-glutamyl cysteine synthase, enhanced the proliferation arrest by almost 100-fold (Dilda et al., 2005b).

BAE cells [3] = test: BAE cell proliferation assay (MTT, 72 h); format: cell-based, bovine
Method: as §1, §2

BAE cells [4] = test: Accumulation of arsenical in BAE cells (cytosolic arsenic by inductively coupled plasma spectrometry); format: cell-based, bovine; conditions: 50 μM
Method: BAE cells were seeded at a density of 1.5×10^6 cells in Petri dishes and allowed to adhere overnight. Cells were incubated with 50 μM (S)-Penicillamine-arsenoxide at discrete times for up to 2 h at 37° C. and then washed three times with ice-cold PBS. The washed cells were lysed in 1 mL of 70% w/w nitric acid. Petri dishes were then washed twice with 1 mL of PBS and kept at 4° C. until use. Samples were diluted 10-fold and analysed for arsenic atoms using an Elan 6100 Inductively Coupled Plasma Spectrometer (Perkin Elmer Sciex Instruments, Shelton, Conn.).

[5] = tested on: human BxPC-3 pancreatic carcinoma tumours; test: Primary tumor growth assay, BxPC-3 tumours in BalbC nude mice; format: in vivo, mouse; conditions: for tumour doubling time: subcutaneous micro-osmotic pump, 28 day
Method: Female 7 to 9 week old Balb C nude mice were used (UNSW Biological Resource Centre). Mice were held in groups of 3 to 5 at a 12 h day and night cycle and were given animal chow and water ad libidum. A suspension of 2×10^6 BxPC-3 cells in 0.2 mL of PBS was injected subcutaneously in the proximal midline. Tumors were allowed to establish and grow to a size of ˜50 mm^3 after which they were randomized into four groups. Tumor volume was calculated using the relationship length×height×width×0.523. Tumor doubling time (TD) was calculated from the tumor growth rate curve during exponential growth using the formula […], where VF is final tumor volume and VI is initial tumor volume (Wolff et al., 2004). Animals were implanted with 28 day alzet model 1004 micro-osmotic pumps (ALZA Corporation, Palo Alto, Calif.) subcutaneously in the flank. The pumps delivery 0.25, 0.5 or 1 mg/kg/day (S)-Penicillamine arsenoxide in 100 mM glycine. Tumor volume and animal weight was measured every 2 or 3 days.
BalbC nude mice bearing subcutaneous human BxPC-3 pancreatic carcinoma tumours in the proximal midline were implanted with 28 day micro-osmotic alzet pumps subcutaneously in the flank. The pumps delivered 0.25, 0.5 or 1 mg per kg per day (S)-Penicillamine arsenoxide. […] The tumour doubling times are 9.2, 8.3, 13.9 and 16.2 days for groups treated with vehicle (100 mM glycine) or 0.25, 0.5 and 1 mg/kg/day (S)-Penicillamine arsenoxide, respectively.

[6] = tested on: PANC-1 cells (pancreatic carcinoma); test: PANC-1 cell proliferation assay (MTT, 72 h); format: cell-based; conditions: PANC-1, human pancreatic carcinoma; read-out: IC50 for proliferation arrest
Method: as §1, §2

[7] = tested on: NB4 cells (acute promyelocytic leukaemia); test: NB4 cell proliferation assay (MTT, 72 h); format: cell-based, human
Method: as §1, §2

[8] = tested on: K562 cells (chronic myelogenous leukaemia); test: K562 cell proliferation assay (MTT, 72 h); format: cell-based; conditions: K562, human chronic myelogenous leukaemia; read-out: IC50 for proliferation arrest
Method: as §1, §2

[9] = tested on: LLC cells (lung carcinoma); test: LLC cell proliferation assay (MTT, 72 h); format: cell-based, human; conditions: mouse Lewis lung carcinoma, read-out: IC50 for proliferation arrest
Method: as §1, §2

[10] = tested on: HT1080 cells (fibrosarcoma); test: HT1080 cell proliferation assay (MTT, 72 h); format: cell-based; conditions: HT1080, human fibrosarcoma; read-out: IC50 for proliferation arrest
Method: as §1, §2

BAE cells [11] = test: BAE cell viability / cytotoxicity (propidium iodide flow cytometry); format: cell-based, bovine; conditions: read-out: IC50 for loss of viability
Description: as §2

[12] = tested on: MCF-7 cells (mammary carcinoma); test: MCF-7 cell proliferation assay (MTT, 72 h); format: cell-based; conditions: MCF-7, human mammary carcinoma; read-out: IC50 for proliferation arrest
Method: as §1, §2

[13] = tested on: organic anion transporting polypeptide (OATP); test: OATP studies with inhibitor DIDS in BAE cells; format: cell-based, bovine
Method: 750,000 BAE cells were seeded in 6 well plates containing DMEM with 10% fetal calf serum and allowed to adhere overnight. Cells were pretreated or not with 500 μM 4,4′-diisothiocyanostilbene-2,2′-disulfonic acid (DIDS) for 30 min and then incubated with 20 μM (S)-Penicillamine arsenoxide for 2 h at 37° C. and 5% CO2. Cells were then washed twice with ice-cold PBS and lysed with 70% nitric acid. Cellular arsenic levels were determined by ICPMS. 5000 BAE cells were seeded in 96 well plates containing DMEM with 10% fetal calf serum and allowed to adhere overnight. Cells were pretreated or not with 300 μM DIDS for […] and then incubated with 1.5 μM (S)-Penicillamine arsenoxide for 24 h at 37° C. and 5% CO2. Cell viability was determined using MTT.

MRP1/2 = test: Effect of MRP1/2 inhibitors 4H10 and MK-571 on accumulation and anti-proliferative activity in BAE cells
Method: The data points and error bars are the mean±SD of quadruplicate determinations and is representative of two experiments. […] The MRP inhibitors were incubated for 30 min with the cells prior to incubation with (S)-Penicillamine-arsenoxide for 72 h. The data points and error bars are the mean±SD of triplicate determinations. *** is p<0.001, ** is p<0.01
BAE, NB4, K562, MDCK2, HT1080, LLC, HCT116, Panc-1, MCF-7 and BxPC-3 cells were seeded at a density of 1.5×10^3, 3×10^3, 4×10^3, 5×10^2, 2×10^3, 5×10^2, 5×10^2, 6×10^3, 6×10^3 and 1×10^4 cells per well, respectively, into 96-well plates. Adherent cells were allowed to adhere overnight. They were then cultured for 72 h in medium containing 10% fetal calf serum and (S)-Penicillamine-arsenoxide. Viable cells were determined by incubating cells with the tetrazolium salt MTT (Sigma, St. Louis, Mo.), which is metabolized by viable cells to form insoluble purple formazan crystals. DMSO was added to lyse cells, the contents of the wells were homogenized and the absorbance measured at 550 nm. Cell number in the untreated control was normalized as 100%, and viable cell number for all treatments was expressed as percentage of control. The cytotoxic effects of (S)-Penicillamine-arsenoxide were assayed by flow cytometry with propidium iodide. BAE cells were seeded at a density of 5×10^4 cells per well into 12-well plates, allowed to adhere overnight, then treated for 48 h with GSAO. […] The combined cells were pelleted, resuspended in 0.5 mL serum-free medium containing 1 μg·mL^−1 propidium iodide (Molecular Probes, Eugene, Oreg.) and analysed by flow cytometry.
BAE cells were seeded at a density of 1.5×10^6 cells in Petri dishes and allowed to adhere overnight. Cells were incubated with 50 μM (S)-Penicillamine-arsenoxide at discrete times for up to 2 h at 37° C. and then washed three times with ice-cold PBS. The washed cells were lysed in 1 mL of 70% w/w nitric acid. […] Samples were diluted 10-fold and analysed for arsenic atoms using an Elan 6100 Inductively Coupled Plasma Spectrometer (Perkin Elmer Sciex Instruments, Shelton, Conn.).

Compound: CC(C)(SCC(=O)Nc1ccc([As](O)O)cc1)[C@@H](N)C(=O)O [(S)-Penicillamine-arsenoxide, 4-(N—(S-penicillaminylacetyl)amino)phenylarsinous acid]
- IC50 [1]: 13 µM
- enhancement of IC50 for proliferation arrest by BSO (BAE cells [2]): approximately 25 fold
- times more effective than GSAO at blocking proliferation and reducing the viability of endothelial cells (BAE cells [3]): ~25 times
- IC50 (BAE cells [3]; 72 h, read-out: IC50 for proliferation arrest): 0.4 µM and 0.43 µM
- initial rate of accumulation (BAE cells [4]): 69 pmol per 10^6 cells per min
- tumour doubling time ([5]; 0.25 mg/kg/day): 8.3 days
- tumour doubling time ([5]; 0.5 mg/kg/day): 13.9 days
- tumour doubling time ([5]; 1 mg/kg/day): 16.2 days
- growth of the BxPC-3 tumours ([5]; 0.25, 0.5 or 1 mg per kg per day): significantly inhibited
- accumulation of connective tissue, mice affected ([5]; highest dose animals): 1 mouse
- skin necrosis at the delivery site, mice affected ([5]; highest dose animals): 3 of the 10
- skin toxicity at pump delivery site ([5]; highest dose animals (1 mg/kg/day)): some skin toxicity at the pump delivery site
- findings at delivery site at the lower doses ([5]; lower doses): some evidence of accumulation of connective tissue at the delivery site in the occasional mouse
- animal weight versus vehicle ([5]; not shown): no change in the weight
- IC50 [6]: 6.5 µM
- IC50 ([7]; NB4, human acute promyelocytic leukaemia, read-out: IC50 for proliferation arrest): 0.7 µM
- effects on APL cells compared to arsenic trioxide ([7]; NB4 cells, 72 h): equivalent to arsenic trioxide; also recorded: as good an inhibitor of APL cell proliferation as arsenic trioxide
- IC50 [8]: 1.4 µM
- IC50 [9]: 5 µM
- IC50 [10]: 4 µM
- IC50 (BAE cells [11]): 3.5 µM
- IC50 [12]: 9 µM
- effect of DIDS on anti-proliferative activity ([13]; 300 μM DIDS, then 1.5 μM compound 24 h): reduces its anti-proliferative activity
- effect of DIDS on uptake ([13]; 500 μM DIDS 30 min, then 20 μM compound 2 h): inhibits (S)-Penicillamine arsenoxide uptake
- substrate status for MRP1/2 (MRP1/2): substrate for MRP1/2
- anti-proliferative effect in presence of MRP1/2 inhibitors (MRP1/2; 0.3 μM compound, 4H10 2 μM or MK-571 15 μM, 72 h): more potent anti-proliferative effect
- accumulation in presence of MRP1/2 inhibitors 4H10 and MK-571 (MRP1/2; 50 μM compound, 4H10 5 μM or MK-571 25 μM): More (S)-Penicillamine-arsenoxide accumulated in BAE cells
